One compound from patent US20160287710A1 (UNIVERSITY OF UTAH RESEARCH FOUNDATION, priority 2013, published 2016) can be followed below.

≈ marks a conversion by molar mass, not a printed value.

What is called solubility is the concentration that dissolves in the medium under given conditions.

This data set in a line: Solubility of progesterone in glycol chitin solutions (reverse-phase HPLC). Particulars: aqueous with cosolvent or surfactant or cyclodextrin. It is filed as physicochemical. As for the experimental part: A mixture of methanol/water (80:20; v/v) was used, as the mobile phase at a flow rate of 1 mL per minute. […] FIG. 1.

Regarding `CC(=O)[C@H]1CC[C@H]2[C@@H]3CCC4=CC(=O)CC[C@]4(C)[C@H]3CC[C@]12C` [Progesterone], the concentration in solution (5 wt % glycol chitin solution, 4 °C, thermodynamic from solid) (solubility at 24 h) came to 148 ± 13.8 µg/mL (≈ 472 µM). In addition, the solubility (in a mixture of PEG-400/water (50:50 v/v)) was about 200 µg/mL (≈ 636 µM).
